Results from patent publication US11304944B2, “MetAP2 inhibitors and methods of treating obesity” (SynDevRx, Inc., priority 2013, dated 2022).
Counter-ions that a name gives are not always drawn.

Experiments:
[1] = tested on: DIO Levin rats; experiment: In vivo testing DIO Levin rats: weight changes, food consumption, insulin, leptin levels; details: for Final BW: after 68 days, 60% fat diet
Method: CKD-732 as referred to herein is the hemitartrate salt of the following structure:
Test articles were administered subcutaneously on an every 4 day (q4d) schedule in a diet-induced obesity (DIO) Levin-DS rat model. […] A dietary intervention (Standard Chow, Labdiet 5001; 3.4 kcal/g) was included to compare to the drug interventions. Upon arrival at three weeks of age, the male rats received ad libitum pellets of Harlan Diet TD.06414, 60% of calories from fat, 21% of calories from carbohydrate; 5.1 kcal/g. Prior to dosing the rats were randomized into groups of three animals with an average body weight of 595 gm. […] Compound 1 in the form of the hemitartrate and CKD-732 in the form of the hemitartrate were dissolved in ethanol prior to dilution with vehicle. All doses were administered at a volume of 5.0 ml/kg. […] On day 1, first dose, the rats were 14 weeks of age. Also on day 1, Group 2 was switched from the high fat diet to a standard chow diet; the remaining groups were maintained on a high fat diet for the duration of the study.
(§1) Animals were weighed every other day. Food consumption was measured weekly. On an approximately weekly basis throughout the study, blood samples were taken for assessment of serum chemistries including glucose and insulin. On Day 48 all rats underwent a 4 hour fasted Oral Glucose Tolerance Test (OGTT). Animals were dosed orally (per os, PO) at 8 mL/kg 25% glucose (2 g/kg). On day 68, gross pathology was performed to determine body composition.

[2] = Plasma pharmacokinetics after single IV bolus in Sprague Dawley rats (LC/MS/MS, analyte Compound 1); format: in vivo; details: male, rat, Compound 1 30 mg/kg single IV bolus
Method: Blood samples were collected via saphenous vein puncture at 0, 0.25, 0.5, 1, 2, 4, 8, 24 and 48 hours.

[3] = tested on: DIO Levin rats; experiment: Oral Glucose Tolerance Test (OGTT) Day 48 and HOMA-ir in DIO Levin rats; format: in vivo; details: for Blood Glucose, Time 15 / Blood Glucose, Time 30 / Blood Glucose, Time 60 / Blood Glucose, Time 90 / Blood Glucose, Time 120: OGTT; for BW: at OGTT;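 as to Blood Glucose pre-OGTT: blood glucose in mg/dL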;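 as to Blood Glucose, Time 120: blood glucose in mg/dL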;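 as to Blood Glucose, Time 15: blood glucose in mg/dL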;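 as to Blood Glucose, Time 30: blood glucose in mg/dL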;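 as to Blood Glucose, Time 60: blood glucose in mg/dL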;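 as to Blood Glucose, Time 90: blood glucose in mg/dL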
Method: as §1

## COC1C(OC(=O)N[C@H]2CC[C@H](N)CC2)CC[C@]2(CO2)C1[C@@]1(C)O[C@@H]1CC=C(C)C (stereo partly drawn) (as salt: tartrate) [Compound 1, Fumagill-6-yl [trans-(4-aminocyclohexyl)]carbamate]
other
  melting point: 180 to 185 °C

## COC1C(OC(=O)N[C@H]2CC[C@H](N)CC2)CC[C@]2(CO2)C1[C@@]1(C)O[C@@H]1CC=C(C)C (stereo partly drawn) [Compound 1, Fumagill-6-yl [trans-(4-aminocyclohexyl)]carbamate]
[1]; 1 mg/kg Q4D
  lower body weight than vehicle: 3.9%
[1]; 1 mg/kg q4d sc
  Avg. Insulin Day 7: 1.83 ng/mL
  Avg. Insulin Day 15: 1.39 ng/mL
  Avg. Insulin Day 23: 1.20 ng/mL
  Avg. Insulin Day 48: 1.75 ng/mL
  Avg. Insulin Pre-dosing: 1.92 ng/mL
  Group Average Food Consumption Day 1-8: 128.6 g
  Group Average Food Consumption Day 9-15: 109.3 g
  Group Average Food Consumption Day 16-23: 121.1 g
  Group Average Food Consumption Day 24-30: 145.9 g
  Group Average Food Consumption Day 31-36: 144.6 g
  Group Average Food Consumption Day 37-43: 141.7 g
  Group Average Food Consumption Day 44-50: 122.4 g
  Group Average Food Consumption Day 51-57: 147.7 g
  Group Average Food Consumption Day 58-63: 140.7 g
  Group Average Food Consumption Day 63-68: 55.1 g
  Leptin Levels Day 29: 2.47
  Leptin Levels Pre-dose: 2.50
  Leptin Levels, Day 29, % Change from Baseline: −1.3%
[1]; 1.0 mg/kg q4d sc
  Final BW: 717.3 g
[1]; 3 mg/kg Q4D, end of the study
  lower body weight than the vehicle control: 8.9%
[1]; 3 mg/kg q4d sc
  Avg. Insulin Day 7: 1.35 ng/mL
  Avg. Insulin Day 15: 1.68 ng/mL
  Avg. Insulin Day 23: 1.27 ng/mL
  Avg. Insulin Day 48: 1.40 ng/mL
  Avg. Insulin Pre-dosing: 2.10 ng/mL
  Group Average Food Consumption Day 1-8: 123.6 g
  Group Average Food Consumption Day 9-15: 98.9 g
  Group Average Food Consumption Day 16-23: 110.1 g
  Group Average Food Consumption Day 24-30: 149.3 g
  Group Average Food Consumption Day 31-36: 138.8 g
  Group Average Food Consumption Day 37-43: 130.9 g
  Group Average Food Consumption Day 44-50: 94.7 g
  Group Average Food Consumption Day 51-57: 116.2 g
  Group Average Food Consumption Day 58-63: 124.9 g
  Group Average Food Consumption Day 63-68: 49.8 g
  Leptin Levels Day 29: 3.60
  Leptin Levels Pre-dose: 3.23
  Leptin Levels, Day 29, % Change from Baseline: 11.33%
[1]; 3.0 mg/kg q4d sc
  Final BW: 684.0 g
[1]; serum leptin day 29
  reduction in leptin levels: did not result in significant reductions in leptin levels
[2]
  Cmax: ~15 µM
  half-life: 10 to 15 min
[3]; 1 mg/kg q4d sc
  Blood Glucose pre-OGTT: 124 mg/dL
  HOMA-ir (Insulin Sensitivity) 15 min: 42.7
  HOMA-ir (Insulin Sensitivity) 30 min: 21.1
  HOMA-ir (Insulin Sensitivity) Pre-dose: 15.4
  Blood Glucose, Time 15: 156 mg/dL
  Blood Glucose, Time 30: 142 mg/dL
  Blood Glucose, Time 60: 152 mg/dL
  Blood Glucose, Time 90: 151 mg/dL
  Blood Glucose, Time 120: 142 mg/dL
  BW: 686 g
[3]; 3 mg/kg q4d sc
  Blood Glucose pre-OGTT: 123 mg/dL
  HOMA-ir (Insulin Sensitivity) 15 min: 29.2
  HOMA-ir (Insulin Sensitivity) 30 min: 9.5
  HOMA-ir (Insulin Sensitivity) Pre-dose: 12.2
  Blood Glucose, Time 15: 175 mg/dL
  Blood Glucose, Time 30: 171 mg/dL
  Blood Glucose, Time 60: 149 mg/dL
  Blood Glucose, Time 90: 147 mg/dL
  Blood Glucose, Time 120: 129 mg/dL
  BW: 668 g
